Reference: patent publication US20170355705A1 (GlaxoSmithKline Intellectual Property (No.2) Limited, priority 2014, published 2017)

Target: T1, SIRT1 (Homo sapiens, UniProt Q96EB6)
T1 sequence (Q96EB6 1-747): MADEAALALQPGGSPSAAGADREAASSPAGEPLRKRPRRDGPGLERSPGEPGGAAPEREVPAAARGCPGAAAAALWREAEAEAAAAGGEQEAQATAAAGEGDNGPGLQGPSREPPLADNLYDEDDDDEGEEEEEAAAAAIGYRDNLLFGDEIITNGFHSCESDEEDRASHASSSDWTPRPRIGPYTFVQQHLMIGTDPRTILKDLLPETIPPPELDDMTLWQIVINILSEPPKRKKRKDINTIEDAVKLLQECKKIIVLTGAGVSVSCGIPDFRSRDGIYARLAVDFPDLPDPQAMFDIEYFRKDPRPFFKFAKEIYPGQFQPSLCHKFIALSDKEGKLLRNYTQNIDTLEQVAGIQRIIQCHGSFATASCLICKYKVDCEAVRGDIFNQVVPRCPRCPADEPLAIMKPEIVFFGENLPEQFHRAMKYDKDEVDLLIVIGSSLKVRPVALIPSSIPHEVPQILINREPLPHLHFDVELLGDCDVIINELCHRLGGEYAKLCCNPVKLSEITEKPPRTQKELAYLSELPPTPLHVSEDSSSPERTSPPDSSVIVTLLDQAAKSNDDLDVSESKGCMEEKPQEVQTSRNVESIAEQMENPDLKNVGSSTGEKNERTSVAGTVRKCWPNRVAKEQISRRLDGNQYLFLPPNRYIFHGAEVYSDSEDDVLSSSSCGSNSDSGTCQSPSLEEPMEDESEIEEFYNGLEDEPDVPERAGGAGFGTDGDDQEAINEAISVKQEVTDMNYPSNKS
Assay: Trp mass spectrometry assay of SIRT1 activity (EC1.5, percent maximum activation)
Format: biochemical
Settings: Trp mass spectrometry assay; for TRP Activity (EC1.5): EC1.5 = concentration giving 150% activation of SIRT1
Summary of the method: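 MS readout: O-acetyl-ADP-ribose (or deacetylated peptide) formed by His-tagged SIRT1 (BL21(DE3)-expressed) on 5TMR-Trp p53-based peptide, 25 min, formic acid stop. EC1.5 = concentration raising activity 50% over no-compound control; % max activation vs control = 100%.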

[1] = percent maximum activation of SIRT1
[2] = 0.5 μM peptide substrate, 120 μM βNAD+, 10 nM SIRT1, 25 minutes at 25° C.

| SMILES | TRP Activity (EC1.5) | TRP MAX RESP (percent maximum fold activation) [1] | TRP MAX RESP (percent maximum fold activation) [2] | TRP Activity (EC1.5, concentration of test compound that results in 150% activation of SIRT1) [2] |
| --- | --- | --- | --- | --- |
| O=C(Nc1cnc(OC[C@@H](O)CO)cn1)N1c2nc(-c3cccc(C(F)(F)F)c3)c(Cl)cc2N2CC[C@H]1C2 [Example 33, (4S)-8-chloro-N-(5-((S)-2,3-dihydroxypropoxy)pyrazin-2-yl)-7-(3-(trifluoromethyl)phenyl)-3,4-dihydro-1,4-methanopyrido[2,3-b][1,4]diazepine-5(2H)-carboxamide] | B (EC1.5 1-25 μM) | A (Fold activation ≧150%) | – | – |
| Cc1cc(-c2ccc3c(n2)N(C(=O)Nc2ccc4c(c2)OCCO4)[C@H]2CCN3C2)ccn1 [Example 121, (4S)-N-(2,3-dihydrobenzo[b][1,4]dioxin-6-yl)-7-(2-methylpyridin-4-yl)-3,4-dihydro-1,4-methanopyrido[2,3-b][1,4]diazepine-5(2H)-carboxamide] | B (EC1.5 1-25 μM) | A (Fold activation ≧150%) | – | – |
| Cc1cc(-c2ccc3c(n2)N(C(=O)NC2CCC2)[C@H]2CCN3C2)ccn1 [Example 183, (4S)-N-cyclobutyl-7-(2-methylpyridin-4-yl)-3,4-dihydro-1,4-methanopyrido[2,3-b][1,4]diazepine-5(2H)-carboxamide] | B (EC1.5 1-25 μM) | A (Fold activation ≧150%) | – | – |
| O=C(Nc1cncc(OCCCO)n1)N1c2nc(-c3cccc(C(F)(F)F)c3)c(Cl)cc2N2CC[C@H]1C2 [Example 73, (4S)-8-chloro-N-(6-(3-hydroxypropoxy)pyrazin-2-yl)-7-(3-(trifluoromethyl)phenyl)-3,4-dihydro-1,4-methanopyrido[2,3-b][1,4]diazepine-5(2H)-carboxamide] | A (EC1.5<1 μM) | A (Fold activation ≧150%) | – | – |
| Cc1cc(-c2ccc3c(n2)N(C(=O)Nc2cnncn2)[C@H]2CCN3C2)ccn1 [Example 187, (4S)-7-(2-methylpyridin-4-yl)-N-(1,2,4-triazin-5-yl)-3,4-dihydro-1,4-methanopyrido[2,3-b][1,4]diazepine-5(2H)-carboxamide] | C (EC1.5>25 μM) | B (Fold Activation <150%) | – | – |
| CC(C)(O)CCOc1nccc(NC(=O)N2c3nc(-c4cccc(C(F)(F)F)c4)c(Cl)cc3N3CC[C@H]2C3)n1 [Example 48, (4S)-8-chloro-N-(2-(3-hydroxy-3-methylbutoxy)pyrimidin-4-yl)-7-(3-(trifluoromethyl)phenyl)-3,4-dihydro-1,4-methanopyrido[2,3-b][1,4]diazepine-5(2H)-carboxamide] | B (EC1.5 1-25 μM) | A (Fold activation ≧150%) | – | – |
| O=C(Nc1cncc(OC[C@H](O)CO)n1)N1c2nc(-c3cccc(C(F)(F)F)c3)c(Cl)cc2N2CC[C@H]1C2 [Example 65, (4S)-8-chloro-N-(6-((R)-2,3-dihydroxypropoxy)pyrazin-2-yl)-7-(3-(trifluoromethyl)phenyl)-3,4-dihydro-1,4-methanopyrido[2,3-b][1,4]diazepine-5(2H)-carboxamide] | A (EC1.5<1 μM) | A (Fold activation ≧150%) | – | – |
| Cc1cc(-c2ccc3c(n2)N(C(=O)Nc2cncnc2)[C@H]2CCN3C2)ccn1 [Example 163, (4S)-7-(2-methylpyridin-4-yl)-N-(pyrimidin-5-yl)-3,4-dihydro-1,4-methanopyrido[2,3-b][1,4]diazepine-5(2H)-carboxamide] | C (EC1.5>25 μM) | A (Fold activation ≧150%) | – | – |
| CCc1cnc(NC(=O)N2c3nc(-c4ccnc(C)c4)ccc3N3CC[C@H]2C3)cn1 [Example 161, (4S)-N-(5-ethylpyrazin-2-yl)-7-(2-methylpyridin-4-yl)-3,4-dihydro-1,4-methanopyrido[2,3-b][1,4]diazepine-5(2H)-carboxamide] | A (EC1.5<1 μM) | A (Fold activation ≧150%) | – | – |
| COc1ncc(-c2nc3c(cc2Cl)N2CC[C@@H](C2)N3C(=O)Nc2ccnc(OC[C@@H](O)CO)c2)cc1C(F)(F)F [Example 99, (4S)-8-chloro-N-(2-((S)-2,3-dihydroxypropoxy)pyridin-4-yl)-7-(6-methoxy-5-(trifluoromethyl)pyridin-3-yl)-3,4-dihydro-1,4-methanopyrido[2,3-b][1,4]diazepine-5(2H)-carboxamide] | B (EC1.5 1-25 μM) | A (Fold activation ≧150%) | – | – |
| O=C(Nc1ccnc(OC[C@@H](O)CO)c1)N1c2nc(-c3cccc(C(F)F)c3)c(Cl)cc2N2CC[C@H]1C2 [Example 107, (4S)-8-chloro-7-(3-(difluoromethyl)phenyl)-N-(2-((S)-2,3-dihydroxypropoxy)pyridin-4-yl)-3,4-dihydro-1,4-methanopyrido[2,3-b][1,4]diazepine-5(2H)-carboxamide] | A (EC1.5<1 μM) | A (Fold activation ≧150%) | – | – |
| CC(C)c1cc(-c2ccc3c(n2)N(C(=O)Nc2cnccn2)[C@H]2CCN3C2)ccn1 [Example 137, (4S)-7-(2-isopropylpyridin-4-yl)-N-(pyrazin-2-yl)-3,4-dihydro-1,4-methanopyrido[2,3-b][1,4]diazepine-5(2H)-carboxamide] | A (EC1.5<1 μM) | A (Fold activation ≧150%) | – | – |
| Cc1cc(-c2ccc3c(n2)N(C(=O)Nc2ccc4[nH]cnc4n2)[C@H]2CCN3C2)ccn1 [Example 189, (4S)-N-(1H-imidazo[4,5-b]pyridin-5-yl)-7-(2-methylpyridin-4-yl)-3,4-dihydro-1,4-methanopyrido[2,3-b][1,4]diazepine-5(2H)-carboxamide] | B (EC1.5 1-25 μM) | A (Fold activation ≧150%) | – | – |
| O=C(Nc1ncnc2cccc(F)c12)N1c2nc(-c3cccc(C(F)(F)F)c3)ccc2N2CC[C@H]1C2 [Example 361] | – | – | A (Fold activation ≧150%) | – |
| Cc1cc(-c2ccc3c(n2)N(C(=O)NCc2ccccn2)[C@H]2CCN3C2)ccn1 [Example 186, (4S)-7-(2-methylpyridin-4-yl)-N-(pyridin-2-ylmethyl)-3,4-dihydro-1,4-methanopyrido[2,3-b][1,4]diazepine-5(2H)-carboxamide] | C (EC1.5>25 μM) | B (Fold Activation <150%) | – | – |
| Cc1ccc(-c2nc3c(cc2F)N2CC[C@@H](C2)N3C(=O)Nc2ccccn2)cn1 [Example 5, (4S)-8-fluoro-7-(6-methylpyridin-3-yl)-N-(pyridin-2-yl)-3,4-dihydro-1,4-methanopyrido[2,3-b][1,4]diazepine-5(2H)-carboxamide] | B (EC1.5 1-25 μM) | A (Fold activation ≧150%) | – | – |
| Cc1ccc(NC(=O)N2c3nc(-c4ccnc(C)c4)ccc3N3CC[C@H]2C3)cn1 [Example 178, (4S)-N-(6-methylpyridin-3-yl)-7-(2-methylpyridin-4-yl)-3,4-dihydro-1,4-methanopyrido[2,3-b][1,4]diazepine-5(2H)-carboxamide] | B (EC1.5 1-25 μM) | A (Fold activation ≧150%) | – | – |
| O=C(Nc1cnccn1)N1c2nc(N3CCOC(C(F)(F)F)C3)ccc2N2CC[C@H]1C2 (single isomer, unassigned) [Example 230] | – | – | A (Fold activation ≧150%) | B (EC1.5 1-25 μM) |
| O=C(Nc1cnccn1)N1c2nc(N3CCC(C(F)(F)F)CC3)ccc2N2CC[C@H]1C2 [Example 191, (4S)-N-(pyrazin-2-yl)-7-(4-(trifluoromethyl)piperidin-1-yl)-3,4-dihydro-1,4-methanopyrido[2,3-b][1,4]diazepine-5(2H)-carboxamide] | A (EC1.5<1 μM) | A (Fold activation ≧150%) | – | – |
| Cc1cc(-c2nc3c(cc2F)N2CC[C@@H](C2)N3C(=O)Nc2ccccn2)ccn1 [Example 15, (4S)-8-fluoro-7-(2-methylpyridin-4-yl)-N-(pyridin-2-yl)-3,4-dihydro-1,4-methanopyrido[2,3-b][1,4]diazepine-5(2H)-carboxamide] | A (EC1.5<1 μM) | A (Fold activation ≧150%) | – | – |
| Cc1cc(-c2ccc3c(n2)N(C(=O)Nc2cnccn2)[C@H]2CCN3C2)cnc1C#N [Example 222, (4S)-7-(6-cyano-5-methylpyridin-3-yl)-N-(pyrazin-2-yl)-3,4-dihydro-1,4-methanopyrido[2,3-b][1,4]diazepine-5(2H)-carboxamide] | – | – | A (Fold activation ≧150%) | B (EC1.5 1-25 μM) |
